Laboratory results from patent US20110076686A1 (priority 2008, published 2011).

Tested on: Legionella pneumophila
Type: cell-based
Conditions: DVC step

| SMILES | effectiveness as DNA gyrase inhibitor / cellular proliferation inhibitor | elongation of Legionella pneumophila cells and blocking of division |
| --- | --- | --- |
| O=C(O)c1cn(C2CC2)c2cc(N3CCNCC3)c(F)cc2c1=O [ciprofloxacin, Ciprofloxacin] | very effective DNA gyrase inhibitors | allow the Legionella pneumophila cells to elongate in preparation for cell division but actually block these elongated cells from dividing |
| CCn1cc(C(=O)O)c(=O)c2ccc(C)nc21 [nalidixic acid] | not a reliably effective DNA gyrase inhibitor | does not provide sufficient elongation |
| CC1=C(C(=O)O)N2C(=O)[C@@H](NC(=O)[C@H](N)c3ccccc3)[C@H]2SC1 [cephalexin] | very effective DNA gyrase inhibitors | allow the Legionella pneumophila cells to elongate in preparation for cell division but actually block these elongated cells from dividing |
